Results: patent publication US6642205B2, “Methods and compositions for reducing side effects in chemotherapeutic treatments” (Pro-Pharmaceuticals, Inc., priority 2000, dated 2003)

Legend:
[1] = Side effects (deaths) after single dose intravenous injection in healthy mice, 20 days observation; format: in vivo, male BDF1 mice; conditions: for Deaths per group / Life span after treatment (except survived animals): single i.v.; for Deaths per group: six animals each; for Life span after treatment (except survived animals): one value per dead animal; for toxicity compared to Adriamycin: healthy mice, single i.v. dose
Excerpt: (§1) Male BDF1 mice were used as the experimental animals for measuring side effects of therapeutic preparations. Mice were acclimated in the laboratory one week prior to experimentation. The animals were housed five per cage in a 12-hour light/dark cycle. The animals received filtered water and sterile rodent food ad libitum. The animals were observed daily and clinical signs were noted. Weight of the animals was in the range of 19-21 g at the day of treatment initiation. The mice were healthy, not previously used in other experimental procedures.

[2] = test system: lymphocyte leukemia P-388; assay: Antitumor effect on subcutaneously implanted lymphocyte leukemia P-388 in mice, single i.v. injection; format: in vivo, male BDF1 mice; conditions: for Average weight gain/loss from day 1 to day 7 / Nonspecific deaths per group / Average survival time, excluding nonspecific deaths / Average survival time, including nonspecific deaths / average weight loss of an animal: single i.v.; for Nonspecific deaths per group / animals that lived longer than the duration of the study (20 days): six animals per group; for Average survival time, excluding nonspecific deaths / Average survival time, including nonspecific deaths: study duration 20 days; for toxicity compared to Adriamycin: tumor-bearing mice, nonspecific deaths
Protocol: “Nonspecific death” is death of a treated tumor-bearing animal if its day of death was statistically less (P≦0.05) than the corresponding day of death of a tumor-bearing animal in the untreated control group.
The response of subcutaneously implanted lymphocyte leukemia P-388 (Arthur D. Little Inc., Cambridge, Mass.) to treatment with a Galactomycin I, Galactomycin II, and Doxorubicin was evaluated in male BDF1 mice.
as §1, with “Mice” for “Male BDF1 mice were used as the experimental animals for measuring side effects of therapeutic preparations. Mice”
There were a total of twelve groups, 10 animals in two control groups (saline only), and six animals in each in 10 agent treatment groups. The groups were treated 24 hours after tumor implantation, as follows:
Tumor cells were implanted in a sub-cutaneous injection of one million cells per mouse and allowed to grow for 24 hours. After that, Adriamycin, Galactomycin I and Galactomycin II were administered as 0.7-10 mg/mL solutions by a single i.v. injection.
Study duration was twenty days after tumor implantation, or nineteen days after treatment initiation.

Structure (SMILES)	Deaths per group ([1]; dose 15 mg/kg)	Deaths per group ([1]; dose 20 mg/kg)	Deaths per group ([1]; dose 25 mg/kg)	Deaths per group ([1]; dose 30 mg/kg)	Deaths per group ([1]; dose 40 mg/kg)	Deaths per group ([1]; dose 80 mg/kg)	Deaths per group ([1]; dose 100 mg/kg)	toxicity compared to Adriamycin [1]	LD50 (estimated from Table 2 data) ([1]; single injection in mice)	Average weight gain/loss from day 1 to day 7 ([2]; dose 7 mg/kg)	Nonspecific deaths per group ([2]; dose 7 mg/kg)	Average survival time, excluding nonspecific deaths ([2]; dose 7 mg/kg)	Average survival time, including nonspecific deaths ([2]; dose 7 mg/kg)	Average weight gain/loss from day 1 to day 7 ([2]; dose 14 mg/kg)	Nonspecific deaths per group ([2]; dose 14 mg/kg)	Average survival time, excluding nonspecific deaths ([2]; dose 14 mg/kg)	Average survival time, including nonspecific deaths ([2]; dose 14 mg/kg)	Average weight gain/loss from day 1 to day 7 ([2]; dose 40 mg/kg)	Average survival time, excluding nonspecific deaths ([2]; dose 40 mg/kg)	Average survival time, including nonspecific deaths ([2]; dose 40 mg/kg)	also measured
COc1cccc2c1C(=O)c1c(O)c3c(c(O)c1C2=O)CC(O)(C(=O)CO)CC3OC1CC(NCC(O)C(O)C(O)C(O)COC2OC(CO)C(O)C(O)C2O)C(O)C(C)O1 [Galactomycin I, N-[α-D-galactopyranosyl-(1→6)-β-O-D-sorbityl]doxorubicin]	0	0	0	0	1	6	6	significantly less toxic	50 to 60 mg/kg	+1.7 g	0	11.7 days	11.7 days	+2.3 g	0	12.2 days	12.2 days	-0.9 g	>18 days	> 16 days	Deaths per group ([1]; dose 10 mg/kg): 0; Life span after treatment (except survived animals) ([1]; dose 40 mg/kg): 2 days; Average weight gain/loss from day 1 to day 7 ([2]; dose 20 mg/kg): -0.8 g; Nonspecific deaths per group ([2]; dose 20 mg/kg): 0; Average survival time, excluding nonspecific deaths ([2]; dose 20 mg/kg): 16.3 days; Average survival time, including nonspecific deaths ([2]; dose 20 mg/kg): 16.3 days; average weight loss of an animal ([2]; dose 40 mg/kg): 0.9 g; animals that lived longer than the duration of the study (20 days) ([2]; dose 40 mg/kg): two; toxicity compared to Adriamycin [2]: significantly less toxic
COc1cccc2c1C(=O)c1c(O)c3c(c(O)c1C2=O)C[C@@](O)(C(=O)CO)C[C@@H]3O[C@H]1C[C@H](N)[C@H](O)[C@H](C)O1 [Adriamycin, 14-hydroxydaunomycin, reference compound]										-0.5 g	0	15.5 days	15.5 days	-1.8 g		>19 days	> 15 days				Deaths per group ([1]; dose 21 mg/kg): Three; Deaths per group ([1]; dose 21 mg/kg, listed as Doxorubicin): 3; LD50 at 20 days ([1]; male, BDF1, mouse, in vivo, intravenous, 21 mg/kg, single injection in mice, read-out: LD50 (estimated from Table 2 data)): ~21 mg/kg; average weight loss of an animal ([2]; dose 14 mg/kg): 1.8 g; animals that lived longer than the duration of the study (20 days) ([2]; dose 14 mg/kg): two
Br.COc1cccc2c1C(=O)c1c(O)c3c(c(O)c1C2=O)CC(O)(C(=O)CO)CC3OC1CC(NCC(O)C(O)C(OC2OC(CO)C(O)C(O)C2O)C(O)CO)C(O)C(C)O1 [Galactomycin II, N-[β-D-galactopyranosyl-(1→4)-β-O-D-sorbityl]doxorubicin]	0	0	0	0	0	1	3	significantly less toxic	~100 mg/kg	+4.3 g	0	11.7 days	11.7 days	+0.8 g	0	12.0 days	12.0 days	-1.1 g	15.0 days	15.0 days	Deaths per group ([1]; dose 50 mg/kg): 0; Life span after treatment (except survived animals) ([1]; dose 80 mg/kg): 2 days; Nonspecific deaths per group ([2]; dose 40 mg/kg): 0; Average weight gain/loss from day 1 to day 7 ([2]; dose 80 mg/kg): -1.0 g; average weight loss of an animal ([2]; dose 80 mg/kg): 1.0 g; Average survival time, excluding nonspecific deaths ([2]; dose 80 mg/kg): >18 days; Average survival time, including nonspecific deaths ([2]; dose 80 mg/kg): > 16 days; animals that lived longer than the duration of the study (20 days) ([2]; dose 80 mg/kg): two; toxicity compared to Adriamycin [2]: significantly less toxic
